Test system: P12-Ichikawa
Experiment: cell viability relative to DMSO control; higher = less cytotoxic
Settings: 48 h
How it was run: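 Three leukemia lines were tested: NOMO1 and SEM at 500 cells/well and P12-Ichikawa at 1000 cells/well. Each was adapted for at least four passages in each medium and seeded in 5 μl in 1536-well plates, and library compounds in DMSO were pin-dosed from 47 μM to 0.79 nM in 11 threefold steps. After 48 h at 37°C, CellTiter-Glo One luminescence was read. Viability is a percentage relative to DMSO wells on each plate, with cell-free wells as background.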

[1] = HPLM + 10% dialyzed FBS, 0.000781 µM
[2] = HPLM + 10% dialyzed FBS, 0.00234 µM
[3] = HPLM + 10% dialyzed FBS, 0.00702 µM
[4] = HPLM + 10% dialyzed FBS, 0.0211 µM
[5] = HPLM + 10% dialyzed FBS, 0.0632 µM
[6] = HPLM + 10% dialyzed FBS, 0.19 µM
[7] = HPLM + 10% dialyzed FBS, 0.569 µM
[8] = HPLM + 10% dialyzed FBS, 1.71 µM
[9] = HPLM + 10% dialyzed FBS, 5.12 µM
[10] = HPLM + 10% dialyzed FBS, 15.4 µM
[11] = HPLM + 10% dialyzed FBS, 46.1 µM
[12] = RPMI 5 mM glucose + 10% FBS, 0.000781 µM
[13] = RPMI 5 mM glucose + 10% FBS, 0.00234 µM
[14] = RPMI 5 mM glucose + 10% FBS, 0.00702 µM
[15] = RPMI 5 mM glucose + 10% FBS, 0.0211 µM
[16] = RPMI 5 mM glucose + 10% FBS, 0.0632 µM
[17] = RPMI 5 mM glucose + 10% FBS, 0.19 µM
[18] = RPMI 5 mM glucose + 10% FBS, 0.569 µM
[19] = RPMI 5 mM glucose + 10% FBS, 1.71 µM
[20] = RPMI 5 mM glucose + 10% FBS, 5.12 µM
[21] = RPMI 5 mM glucose + 10% FBS, 15.4 µM
[22] = RPMI 5 mM glucose + 10% FBS, 46.1 µM
[23] = RPMI 5 mM glucose + 10% dialyzed FBS, 0.000781 µM
[24] = RPMI 5 mM glucose + 10% dialyzed FBS, 0.00234 µM
[25] = RPMI 5 mM glucose + 10% dialyzed FBS, 0.00702 µM
[26] = RPMI 5 mM glucose + 10% dialyzed FBS, 0.0211 µM
[27] = RPMI 5 mM glucose + 10% dialyzed FBS, 0.0632 µM
[28] = RPMI 5 mM glucose + 10% dialyzed FBS, 0.19 µM
[29] = RPMI 5 mM glucose + 10% dialyzed FBS, 0.569 µM
[30] = RPMI 5 mM glucose + 10% dialyzed FBS, 1.71 µM
[31] = RPMI 5 mM glucose + 10% dialyzed FBS, 5.12 µM
[32] = RPMI 5 mM glucose + 10% dialyzed FBS, 15.4 µM
[33] = RPMI 5 mM glucose + 10% dialyzed FBS, 46.1 µM

Compound	cell viability [1] [%]	cell viability [2] [%]	cell viability [3] [%]	cell viability [4] [%]	cell viability [5] [%]	cell viability [6] [%]	cell viability [7] [%]	cell viability [8] [%]	cell viability [9] [%]	cell viability [10] [%]	cell viability [11] [%]	cell viability [12] [%]	cell viability [13] [%]	cell viability [14] [%]	cell viability [15] [%]	cell viability [16] [%]	cell viability [17] [%]	cell viability [18] [%]	cell viability [19] [%]	cell viability [20] [%]	cell viability [21] [%]	cell viability [22] [%]	cell viability [23] [%]	cell viability [24] [%]	cell viability [25] [%]	cell viability [26] [%]	cell viability [27] [%]	cell viability [28] [%]	cell viability [29] [%]	cell viability [30] [%]	cell viability [31] [%]	cell viability [32] [%]	cell viability [33] [%]
CCN1C[C@H](C)[N]2C(=C(O)C3=C2\C(=N/N(CC4=CC=C(F)C(=C4)Cl)C3=O)C(=O)NC)C1=O	111	116	126	102	124	121	111	97.4	103	107	112	103	115	115	110	113	114	111	101	101	105	94.7	102	105	108	116	105	101	117	108	89.7	92.4	92.5
CCn1c(-c2nonc2N)nc2c(C#CC(C)(C)O)ncc(OC[C@H]3CCCNC3)c21	91.1	94	89	84.1	73.1	74.6	69.9	66.3	65.8	61.4	58.7	77	86.2	76.2	70.6	53.1	56.4	46.2	52.7	45.1	45.9	46.7	81.2	87.4	80.5	77.3	66.5	66.7	58.9	56.6	48.8	50.2	49.9
Cc1cc(OCCC[S+](C)(=O)[O-])cc(C)c1-c1cccc(COc2ccc3c(c2)OC[C@H]3CC(=O)O)c1	100	104	98.1	108	97	94.8	97.4	93.6	91.6	94.2	68.6	105	106	110	103	101	100	98.1	84.2	84.9	86.8	49.3	93.1	96.2	102	98.5	96.1	97.7	91.1	84.3	84.7	82.4	46.1
O=C(O)CCCCC(CCSCc1ccccc1)SCc1ccccc1 (stereo not drawn)	108	115	114	109	120	116	122	113	118	62.1	9.29	112	117	138	119	128	132	130	135	121	119	58.4	106	116	116	111	122	124	121	122	116	101	52.9
CC(C)=CCC/C(C)=C/CC/C(C)=C/CSc1ccccc1C(=O)O	103	121	117	113	119	105	91.2	83.7	90.6	61	36.4	106	106	111	95.7	101	90	82.1	67.3	60	47.9	34.4	104	112	120	116	98.1	97.2	99.5	76.4	75.2	60	39.8
CC(C)(F)C[C@H](N[C@@H](c1ccc(-c2ccc([S+](C)(=O)[O-])cc2)cc1)C(F)(F)F)C(=O)NC1(C#N)CC1	106	120	111	112	115	117	124	115	112	110	98.7	99.9	114	111	121	120	111	112	109	113	106	98.7	93.8	115	106	106	121	111	111	111	109	101	99.5
CCN(CCO)CCCOc1ccc2c(Nc3cc(CC(=O)Nc4cccc(F)c4)[nH]n3)ncnc2c1	99.6	99.8	107	109	104	43.9	11.6	10.8	9.25	9.18	10.6	102	110	115	117	108	45.4	16.7	14.1	11	10.5	16.3	102	112	111	111	114	68.6	20.7	21	21.1	18.5	26.9
CCN1\C=C(\C(O)=O)C(=O)C2=C1N=C(N3CCNCC3)C(=C2)F	75.4	89.2	85.8	94.9	91.8	93.7	94.1	91.9	91.4	92.2	84.1	72.1	82.1	76	86.3	80.7	81.6	79.4	78.4	85.7	83.6	81	74.1	82.6	77.7	90.3	84.1	76.9	88.7	83.3	77.2	83.4	95.1
O=C1CCC[C@@H]2[C@H]3CCCN4CCC[C@@H](CN12)[C@@H]34	78.4	85.5	83.3	87.4	96.1	92.1	83.1	88.2	92.5	98.1	93.4	83.7	83.6	77.8	87.6	88.9	85.7	76.3	86	79.3	87.6	75.7	74.9	79	79.7	81.8	86.8	83.7	80.1	86.2	76.9	84.7	80.9
CCCC(C)(COC(N)=O)COC(=O)NC(C)C (stereo not drawn)	115	117	114	130	127	123	121	119	129	135	119	–	–	–	–	–	–	–	–	–	–	–	–	–	–	–	–	–	–	–	–	–	–
C[C@]12Cc3cn[nH]c3C[C@@H]1CC[C@@H]1[C@@H]2CC[C@@]2(C)[C@H]1CC[C@]2(C)O	105	116	113	113	125	110	98.1	107	101	120	103	108	64.2	123	112	120	109	102	106	113	110	93.7	97.4	112	111	97.2	106	111	105	99.6	96.9	97.5	93.1
CCOc1cc2ncc(C#N)c(Nc3ccc(F)c(Cl)c3)c2cc1NC(=O)/C=C/CN(C)C	118	116	131	122	116	71.7	80.9	61.1	41.6	21.1	2.69	121	120	123	128	121	95.2	85.3	71.9	57.6	26.3	5.42	–	–	–	–	–	–	–	–	–	–	–
O=C(Nc1nnc(-c2ccco2)o1)c1cc(-c2ccccc2)nc2ccccc12	113	99.3	103	116	113	110	116	109	44.4	3.09	3.16	104	105	115	110	116	113	118	119	117	97.8	6.52	95.7	99.8	99.2	94.2	108	105	100	105	102	93.2	7.67
C[C@@H]1O[C@@H](O[C@H]2C[C@@H](O)[C@]3(CO)[C@H]4[C@H](O)C[C@]5(C)[C@@H](C6=CC(=O)OC6)CC[C@]5(O)[C@@H]4CC[C@]3(O)C2)[C@H](O)[C@H](O)[C@H]1O	98.5	96.7	97.5	85.2	32.9	11.5	10.7	12.3	12.7	12.9	9.88	92.2	105	102	94.7	80	33.6	9.32	8.91	6.97	6.93	5.78	98.8	101	98.7	88.7	56.4	17.6	9.86	8.22	6.53	5.46	4.89
CO[C@@]12[C@H](COC(N)=O)C/3=C(N1C[C@@H]4N[C@H]24)/C(=O)/C(=C(N)\C3=O)C	117	123	125	126	119	116	112	121	118	118	99.2	–	–	–	–	–	–	–	–	–	–	–	–	–	–	–	–	–	–	–	–	–	–
CC(=O)OC[C@H]1O[C@@H]([S-])[C@H](OC(C)=O)[C@@H](OC(C)=O)[C@@H]1OC(C)=O.CCP(CC)CC.[Au+]	89.2	88.1	91.2	99.2	94.1	102	98.6	94.5	71.7	6.24	6.03	86.8	89.2	90.6	93.1	82.2	90.6	93.4	89.3	14.8	5.1	4.94	87.8	84.1	81.6	92.7	79.7	87.6	91.9	78.2	6.72	5.18	5.56

Source: the supplement of paper PMC11451515
